Among the data in PMC11591096, “Hit Identification and Functional Validation of Novel Dual Inhibitors of HDAC8 and Tubulin Identified by Combining Docking and Molecular Dynamics Simulations” (Antioxidants, 2024) are IC50 values, retold here.

The target in the assay is T1, HDAC8 (Homo sapiens, UniProt Q9BY41).
T1 construct: purchased enzyme (VinciBiochem)
T1 sequence (Q9BY41 1-377): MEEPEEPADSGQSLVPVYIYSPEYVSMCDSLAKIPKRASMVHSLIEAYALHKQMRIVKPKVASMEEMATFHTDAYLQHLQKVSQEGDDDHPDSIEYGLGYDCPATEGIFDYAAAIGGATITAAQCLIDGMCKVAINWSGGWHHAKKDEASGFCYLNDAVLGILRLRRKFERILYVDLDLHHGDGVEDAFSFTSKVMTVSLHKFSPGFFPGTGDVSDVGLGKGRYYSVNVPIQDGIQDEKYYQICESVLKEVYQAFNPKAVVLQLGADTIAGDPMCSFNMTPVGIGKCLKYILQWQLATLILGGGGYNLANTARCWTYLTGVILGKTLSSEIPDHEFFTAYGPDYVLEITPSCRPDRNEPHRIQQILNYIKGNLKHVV
Put plainly: HDAC-Glo I/II bioluminogenic deacetylase assay. In kind it is biochemical. The note with it: read-out: HDAC8IC50 (μM) ^a. The text has this:
HDAC-Glo I/II bioluminogenic deacetylase assay on HDAC8

As to `Cc1cc(OCC(=O)N2CCC(C(N)=O)CC2)c2c(C)c(Cc3ccccc3)c(=O)oc2c1` [CNP0217284], the IC50 was > 300 µM.
